Key:
[1] = system: Plasmopara viticola; format: in vivo; conditions: 200 ppm; grape vine leaf disks, preventative; inoculated 1 day after application; assessed 6-8 days after application
[2] = system: Phytophthora infestans; format: in vivo; conditions: 200 ppm; tomato leaf disks, preventative; inoculated 1 day after application; assessed 5-7 days after application
[3] = system: Pythium ultimum; test: Pythium ultimum/Liquid Culture (Seedling Damping Off); format: cell-based; conditions: Globisporangium ultimum, read-out: control of Pythium ultimum (inhibition of growth determined photometrically)

SMILES | control of Plasmopara viticola (percent disease control compared to untreated) [1] | control of Phytophthora infestans (percent disease control compared to untreated) [2] | inhibition at 20 ppm [3] [%]
COC(=O)Nc1ccc(-c2cnc3c(C)cc(C(=O)N(C)c4ccc(F)c(C)c4)nn23)cn1 [Compound 1, methyl N-[5-[6-[(4-fluoro-3-methyl-phenyl)-methyl-carbamoyl]-8-methyl-imidazo[1,2-b]pyridazin-3-yl]-2-pyridyl]carbamate] | at least 80% |  | 
COC(=O)Nc1ccc(-c2cnc3c(C)cc(C(=O)N4CCCc5cc(F)ccc54)nn23)cn1 [Compound 2, methyl N-[5-[6-(6-fluoro-3,4-dihydro-2H-quinoline-1-carbonyl)-8-methyl-imidazo[1,2-b]pyridazin-3-yl]-2-pyridyl]carbamate] |  | at least 80% | 
COC(=O)Nc1ccc(-c2cnc3c(C)cc(C(=O)N(C)c4ccc(F)cc4)nn23)cn1 [Compound 3, methyl N-[5-[6-[(4-fluorophenyl)-methyl-carbamoyl]-8-methyl-imidazo[1,2-b]pyridazin-3-yl]-2-pyridyl]carbamate] | at least 80% | at least 80% | 
COC(=O)Nc1ccc(-c2cnc3c(C)cc(C(=O)N(C)c4ccc(F)c(OC)c4)nn23)cn1 [Compound 4, methyl N-[5-[6-[(4-fluoro-3-methoxy-phenyl)-methyl-carbamoyl]-8-methyl-imidazo[1,2-b]pyridazin-3-yl]-2-pyridyl]carbamate] | at least 80% | at least 80% | ≥ 80
COC(=O)Nc1ccc(-c2cnc3ccc(C(=O)N(C)c4ccc(F)c(OC)c4)nn23)cn1 [Compound 8, methyl N-[5-[6-[(4-fluoro-3-methoxy-phenyl)-methyl-carbamoyl]imidazo[1,2-b]pyridazin-3-yl]-2-pyridyl]carbamate] | at least 80% | at least 80% | ≥ 80

Source: patent US20260293901A1 (priority 2023, published 2026)
